The results in this text go back to patent US9061984B2 (University of Louisville Research Foundation, Inc., priority 2008, dated 2015).

Series [1] has as its system VERO cells. Put plainly: VERO cells IC50 (Table 5). Type of series: cell-based, African green monkey. The settings on record: Chlorocebus sabaeus.
For series [2], the system named is Trypanosoma cruzi (Tulahuen C4). Put plainly: In vitro anti-T. cruzi activity (β-galactosidase CPRG colorimetric assay in VERO monolayer). The format is cell-based.
Series [3] deals with M. tuberculosis H37Rv. Put plainly: Anti-tuberculosis bioassay (tetrazolium microplate MIC). Type of series: cell-based. The settings on record: Mycobacterium tuberculosis, read-out: Mycobacterium MIC H37Rv, Table 5.
In a further series the test system is 3T3 cells. Put plainly: Cell growth inhibition bioassay (sulforhodamine B). The settings on record: 48 h, SRB. The format is cell-based, mouse. A digest of the protocol: (§1)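 Cells were exposed to compound alongside matched solvent controls, then stained with sulforhodamine B. Percent growth inhibition was calculated from dye absorbance against the control.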
For a further series, the system named is MCF-7 cells. Put plainly: Cell growth inhibition bioassay (sulforhodamine B). The settings on record: 48 h, SRB. The format is cell-based, human. A digest of the protocol: (§2)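 Growth inhibition was measured colorimetrically with sulforhodamine B staining and expressed as percent inhibition relative to solvent-treated controls. Cell lines were human: MCF-7 breast adenocarcinoma, DU145 and PC3 prostate carcinoma/adenocarcinoma, H460 large cell lung cancer.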

For a further series, the system named is M-14 cells. Put plainly: Cell growth inhibition bioassay (sulforhodamine B). Type of series: cell-based, human. The settings on record: 48 h, SRB. Put shortly:
as §1

For another series, the system named is HT-29 cells. Put plainly: Cell growth inhibition bioassay (sulforhodamine B). The format is cell-based, human. The settings on record: 48 h, SRB. Put shortly:
as §1

Another series deals with H460 cells. Put plainly: Cell growth inhibition bioassay (sulforhodamine B). The format is cell-based, human. The settings on record: 48 h, SRB. A digest of the protocol:
as §2

The test system of another series is K562 cells. Put plainly: Cell growth inhibition bioassay (sulforhodamine B). The format is cell-based, human. The settings on record: 48 h, SRB. A digest of the protocol: as §1
In another series the test system is DU145 cells. Put plainly: Cell growth inhibition bioassay (sulforhodamine B). The settings on record: 48 h, SRB. The format is cell-based, human. A digest of the protocol:
as §2

A short description of series [4]: Cytotoxicity on VERO cells (MTT), anti-T. cruzi study. The settings on record: African green monkey, VERO cells.
Series [5] concerns VERO cells. Put plainly: Cell growth inhibition bioassay (sulforhodamine B). The format is cell-based, African Green Monkey. The settings on record: 48 h, SRB. A digest of the protocol: as §1
For series [6], the system named is M. tuberculosis H37Rv. Put plainly: Conventional aerobic (MABA) culture assay, luminescence MIC. The settings on record: for MIC: Mycobacterium tuberculosis, 168 h. Type of series: cell-based, Mycobacterium tuberculosis.
The test system of another series is L. amazonensis. The settings on record: intralesional, compounds 5 mg/kg/day, Glucantime 33 mg Sb(v)/kg/day; for Mean lesion wt (mg) (±SD): BALB/c mice n=10; for % Variation of lesion wt / % reduction of parasite burden in the lesion: vs control.
A further series relates to L. braziliensis PER006. Put plainly: Activity against macrophages infected with Leishmania amastigotes. The settings on record: Leishmania braziliensis, Macrophage, read-out: IC50 L. braziliensis PER006.
Series [7] concerns axenic amastigotes of L. amazonensis (strain MHOM/BR/76/LTB-012). The settings on record: Table 8b.
Series [8] is described as follows: Toxicity to peritoneal macrophages (Trypan Blue count). Type of series: cell-based, BALB/C mouse. The settings on record: BALB/C, mouse.
Series [9] relates to axenic amastigotes of L. amazonensis (strain MHOM/BR/76/LTB-012). Put plainly: microbe, parasite or virus in culture. The settings on record: Leishmania amazonensis.
Another series deals with M. tuberculosis MDR. Put plainly: Anti-tuberculosis bioassay (tetrazolium microplate MIC). The format is cell-based. The settings on record: Mycobacterium tuberculosis, read-out: Mycobacterium MIC MDR.
The next series deals with L. peruviana LCA08. Put plainly: Activity against macrophages infected with Leishmania amastigotes. The settings on record: Leishmania peruviana, Macrophage, read-out: IC50 L. peruviana LCA08.
The test system of series [10] is VERO cells.
Another series deals with peritoneal macrophages. Put plainly: Toxicity to peritoneal macrophages (Trypan Blue count). The format is cell-based, BALB/C mouse.
The next series is described as follows: in vitro. The settings on record: African green monkey.

Each structure is given as a SMILES string. ≈ marks a conversion by molar mass, not a printed value. Where two headings read alike, the source gives them in different places.

Method for L. braziliensis PER006: A cloned line of Leishmania amazonensis(strain MHOM/BR/76/LTB-012) was used in all experiments. Axenically grown amastigote forms of L. amazonensis were maintained by weekly subpassages in MAA/20 medium (Sereno and Lemesre, Antimicrobial Agents and Chemotherapy 41, 972-976 (1997)) at 32±1° C. in 25 cm^2 tissue culture flasks. L. peruviana (strain MHOM/PE/LCA08) and L. braziliensis (strainMHOM/PE/PER006) were maintained in the promastigote stage in a biphasic medium (blood agar with 0.89% NaCl, pH 7.4) at 24° C., with sub-passage every 3 to 4 days. Promastigotes (5×10^6 parasites) were then transferred to 25 cm2 tissue culture flasks containing 5 ml of M199 medium supplemented with 10% foetal bovine serum (FBS), pH 7.4. After 4 days, exponential phase promastigotes were centrifuged for 10 minutes at 1500 g and 4° C. The supernatant was discarded and replaced by fresh M199 medium supplemented with 20% FBS, pH 5.5. Axenic amastigotes transformation was then induced by increasing the temperature to 34° C. and incubating for 96 h (Teixeira et al., Parasitology Research 88, 963-968 (2002)).
Extracted cells were immediately deposited on sterile 4×4 mm cover glasses and placed in each well of a 96-well plate. Plates were incubated for 24 h at 37° C., 5% CO2 to allow cell adhesion (Castillo et al, Journal of Ethnopharmacology 112, 410-414 (2007)). Pre-warmed complete M199 medium was used twice to remove non-adherent cells. A neutral red method (Fautz et al., Mutation Research 253, 173-179 (1991)) was employed to determine cell concentration. Approximately 7×10^4 viable cells were deposited in each well for adhesion.
Infection of macrophages by amastigotes was determined as follows. […] Twelve hours after infection, a solution of the compounds to be tested was added to the cultures at various concentrations and maintained at 37° C. in 5% CO2 for a further forty-eight hours more. The plates were fixed with methanol and stained with 10% Giemsa stain. The percentage of infected macrophages was determined microscopically at 100 times magnification. The number of intracellular amastigotes was determined in 300 cells. Following Delorenzi et al. Antimicrobial Agents and Chemotherapy, 45, 1349-1354 (2001)) the percentage of infection rate (% IR) of each culture was calculated as follows: % IR=100−(infection rate of the treated culture/infection rate of the untreated culture)×100.
All experiments were performed in triplicate. ANOVA was used to test for statistical significance of differences (Epi-Info, Statview student program). The total parasite burden was calculated as a mean number of amastigotes per cells multiplied by the number of infected macrophages.

As usually defined, the IC50 is the concentration that inhibits the measured activity by half. A word on the MIC: it is the lowest concentration found to suppress growth. As usually defined, the GI50 is the concentration that inhibits growth by half. For `Clc1ccc(/C=N\Nc2ncnc3sc4c(c23)CCCC4)cc1` [II-28], the IC50 in the series on VERO cells [1] was over 80 mg/L; in series [2] (Trypanosoma cruzi, TULAHUEN, Vero, Lab A, read-out: T. cruzi IC50 Lab A), 1.6 mg/L (≈ 4.67 µM); in [2] (Trypanosoma cruzi, TULAHUEN, Vero, Lab B, read-out: T. cruzi IC50 Lab B), 4.5 mg/L (≈ 13.1 µM); in series [2] (Trypanosoma cruzi, TULAHUEN, Vero, Table 2, read-out: IC50 - T. cruzi) it was 6.5 mg/L (≈ 19 µM); in series [4] (Cytotoxicity VERO Lab B, Lab B), 7 mg/L (≈ 20.4 µM); in [4] (IC50 - VERO Cytotoxicity, Table 2) it was 27 mg/L (≈ 78.8 µM). Moreover, the IC50 in the series with L. braziliensis PER006 was 5.9 mg/L (≈ 17.2 µM); in series [9] (read-out: IC50 Cytotoxicity Against Amastigotes), 3.3 µM; in series [9] (read-out: L. amazonensis IC50), 0.6 µM; in the series with L. peruviana LCA08, over 10 mg/L. In addition, the “Selectivity Index Lab B” value in series [2] (IC50, VERO/IC50, T. cruzi, Lab B) stood at 1.6. In [2] (Trypanosoma cruzi, TULAHUEN, Vero, 120 h, 10 μg/mL of each compound, 120 hours, read-out: T. cruzi Inhib. (%)), the inhibition at 10 µg/mL was found to be 74.7%. Besides, the MIC with M. tuberculosis H37Rv [3] was 12.5 mg/L (≈ 36.5 µM); against M. tuberculosis H37Rv [6] (aerobic, 7 days, H37Rv), over 100 mg/L; in the series with M. tuberculosis MDR, 6.25 mg/L (≈ 18.2 µM). In addition, the GI50 with 3T3 cells (Mus musculus, NIH3T3, read-out: GI50 in indicated cell line: 3T3) was 6.4 mg/L (≈ 18.7 µM); in the series on MCF-7 cells (Homo sapiens, MCF7, read-out: GI50 in indicated cell line: MCF-7) it was 2.9 mg/L (≈ 8.46 µM); with M-14 cells (Homo sapiens, M14, read-out: GI50 in indicated cell line: M-14), over 62.5 mg/L; with HT-29 cells (Homo sapiens, HT-29, read-out: GI50 in indicated cell line: HT-29) it was 5.2 mg/L (≈ 15.2 µM); with H460 cells (Homo sapiens, NCI-H460, read-out: GI50 in indicated cell line: H460), 4.4 mg/L (≈ 12.8 µM); in the series with K562 cells (Homo sapiens, K562, read-out: GI50 in indicated cell line: K562) it was 2.3 mg/L (≈ 6.71 µM). For the same compound, the GI50 with DU145 cells (Homo sapiens, DU-145, read-out: GI50 in indicated cell line: DU145) was determined as 5 mg/L (≈ 14.6 µM); in the series with VERO cells [5] (Chlorocebus sabaeus, Vero, read-out: GI50 in indicated cell line: VERO), 3 mg/L (≈ 8.75 µM). Further, the “Mean lesion size (mm)” value in the series with L. amazonensis (after 4 weeks treatment) was 3.6 mm; in the series with L. amazonensis (after 7 weeks treatment), 5.2 mm. For the same compound, the figures for the “Mean parasite quantification (per 10^6) in lesion per mg (±SD)” value in the series with L. amazonensis (after 4 weeks treatment) and in the series on L. amazonensis (after 7 weeks treatment) were 0.92 (±0.32) amastigotes (×10^6)/mg and 1.26 (±0.02) amastigotes (×10^6)/mg, respectively. Besides, the “Mean lesion wt (mg) (±SD)” value is given as 60.4 (±31.3) mg with L. amazonensis (after 4 weeks treatment) and 169.1 (±15.3) mg with L. amazonensis (after 7 weeks treatment). Also, the “% Variation of lesion wt” value in the series on L. amazonensis (after 4 weeks treatment) is 0%; in the series with L. amazonensis (after 7 weeks treatment), −90%. Further, the “% reduction of parasite burden in the lesion” value with L. amazonensis (after 4 weeks treatment) was found to be 46%; with L. amazonensis (after 7 weeks treatment), 25%. Besides, the “Selectivity Index” value in series [7] is given as 85.2. The IC50 at 48 h in [8] (Cytotoxicity Macrophages IC50) is 48.8 µM; in series [8] (IC50 Cytotoxicity Against Macrophages), over 10 µM.

With `CC(C)=NNc1ncnc2sc3c(c12)CCCC3` [II-44], the “T. cruzi IC50 Lab A” value in series [2] (Lab A) turned out to be 3.2 mg/L. The “T. cruzi IC50 Lab B” value in [2] (Lab B) was determined as 3.7 mg/L. In the series on 3T3 cells, the “GI50 in indicated cell line: 3T3” value is under 0.98 mg/L. Moreover, in the series on MCF-7 cells, the “GI50 in indicated cell line: MCF-7” value was 3.2 mg/L (≈ 12.3 µM). Moreover, the “GI50 in indicated cell line: M-14” value in the series with M-14 cells turned out to be 6.1 mg/L (≈ 23.4 µM). Besides, the “GI50 in indicated cell line: HT-29” value in the series with HT-29 cells was 8.6 mg/L (≈ 33 µM). The “GI50 in indicated cell line: H460” value with H460 cells was 2.4 mg/L (≈ 9.22 µM). The “GI50 in indicated cell line: K562” value with K562 cells came to 3.5 mg/L (≈ 13.4 µM). Moreover, the “GI50 in indicated cell line: DU145” value in the series with DU145 cells came to 3.0 mg/L (≈ 11.5 µM). Besides, the “Cytotoxicity VERO cell” value with VERO cell is 32.7 µg/mL. The “Cytotoxicity VERO Lab B” value in the series on VERO cells [10] is 10.0. Moreover, the “GI50 in indicated cell line: VERO” value in the series on VERO cells [5] is 3.7 mg/L (≈ 14.2 µM). The “MIC MABA” value against M. tuberculosis H37Rv [6] (aerobic, 7 days, H37Rv) is 62.4 mg/L (≈ 240 µM). Moreover, the results for the IC50 (in series [7] (read-out: L. amazonensis IC50); with peritoneal macrophages) were 10.6 µM and 62 µM, respectively.

In the series “in vitro”, `CO[C@H]1/C=C/O[C@@]2(C)Oc3c(C)c(O)c4c(O)c(c(/C=N/N5CCN(C)CC5)c(O)c4c3C2=O)NC(=O)/C(C)=C\C=C\[C@H](C)[C@H](O)[C@@H](C)[C@@H](O)[C@@H](C)[C@H](OC(C)=O)[C@@H]1C` [Rifampin, reference compound] displayed an IC50 of 97.2 mg/L (≈ 118 µM). For the same compound, in the series with M. tuberculosis H37Rv [6] (aerobic, 7 days, H37Rv), the MIC came out at 0.09 mg/L (≈ 0.109 µM). The “Selectivity Index H37Rv” value with M. tuberculosis H37Rv [6] (VERO vs MABA MIC) was 1025.8.
